Results: ChEMBL document CHEMBL1201862, “PubChem BioAssay data set” (2004)
Active and inactive are the calls of the source.

What was measured:
[1] = Counterscreen for IDE inhibitors: Luminescence-based cell-based high throughput dose response assay to identify compounds that are cytotoxic to HEK cells. [Related pubchem assays: 434962 (Primary screen (IDE inhibitors in singlicate)), 449730 (Counterscreen (Cytotoxicity in triplicate)), 435028 (Confirmation (IDE inhibitors in triplicate)) …; assay type: functional; conditions: HEK293
Insulin-degrading enzyme = biological target: T1, Insulin-degrading enzyme (Homo sapiens, UniProt P14735); experiment: Dose Response: Fluorescence polarization-based cell-based high throughput dose response assay for inhibitors of insulin-degrading enzyme (IDE). [Related pubchem assays: 434962 (Primary screen (IDE inhibitors in singlicate)), 449730 (Counterscreen (Cytotoxicity in triplicate)), 435028 (Confirmation (IDE inhibitors in triplicate)), 434984 (Summary …; assay type: functional
T1 sequence (P14735 whole entry): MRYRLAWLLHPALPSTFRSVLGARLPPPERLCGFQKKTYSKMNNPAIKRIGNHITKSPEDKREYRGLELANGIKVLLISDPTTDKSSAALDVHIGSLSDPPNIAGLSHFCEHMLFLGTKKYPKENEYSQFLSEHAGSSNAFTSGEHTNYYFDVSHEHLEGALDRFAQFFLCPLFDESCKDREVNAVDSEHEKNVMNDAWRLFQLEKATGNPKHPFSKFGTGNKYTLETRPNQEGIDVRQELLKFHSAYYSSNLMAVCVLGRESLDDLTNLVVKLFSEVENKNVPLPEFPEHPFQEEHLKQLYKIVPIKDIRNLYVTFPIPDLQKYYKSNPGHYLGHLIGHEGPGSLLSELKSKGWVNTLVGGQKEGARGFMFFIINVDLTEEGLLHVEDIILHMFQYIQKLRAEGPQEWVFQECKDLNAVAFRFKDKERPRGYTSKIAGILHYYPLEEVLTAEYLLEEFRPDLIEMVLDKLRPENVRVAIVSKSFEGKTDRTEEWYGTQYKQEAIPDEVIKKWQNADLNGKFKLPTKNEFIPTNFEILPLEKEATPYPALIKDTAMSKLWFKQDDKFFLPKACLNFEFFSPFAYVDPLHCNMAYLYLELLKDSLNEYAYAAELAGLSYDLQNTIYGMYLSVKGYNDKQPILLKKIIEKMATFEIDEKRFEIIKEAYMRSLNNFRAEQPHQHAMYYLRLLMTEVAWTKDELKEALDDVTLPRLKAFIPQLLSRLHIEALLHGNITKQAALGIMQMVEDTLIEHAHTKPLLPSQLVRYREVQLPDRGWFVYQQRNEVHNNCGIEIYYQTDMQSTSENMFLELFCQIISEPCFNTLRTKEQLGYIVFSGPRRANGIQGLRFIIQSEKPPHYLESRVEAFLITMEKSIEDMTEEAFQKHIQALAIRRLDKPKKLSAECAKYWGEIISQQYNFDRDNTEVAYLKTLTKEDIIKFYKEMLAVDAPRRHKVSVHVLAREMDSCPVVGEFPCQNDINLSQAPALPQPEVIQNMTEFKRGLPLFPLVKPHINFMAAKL

Candida albicans [2] = experiment: growth inhibition of resistant C. albicans, dose response, CaCi-8 strain, fluconazole, dry powder, set 4 (AID 488950); assay type: functional, organism-based
Candida albicans [3] = experiment: C. albicans growth inhibition with fluconazole, dose response, antifungal resistance reversal project, CaCi-2 strain, Alamar Blue, dry powder, set 2 (AID 488930); assay type: functional, organism-based
Candida albicans [4] = experiment: fluconazole resistance reversal in C. albicans, dose response, CaCi-2 strain, Alamar Blue, dry powder, set 4 (AID 488943); assay type: functional, organism-based
Candida albicans [5] = experiment: growth inhibition of azole-resistant C. albicans, dose response, CaCi-8 strain, Alamar Blue, dry powder, set 2 (AID 488909); assay type: functional, organism-based
[6] = biological target: T2, Luciferin 4-monooxygenase (Photinus pyralis, UniProt P08659); experiment: Counter Screen for Luciferase-based Assay Positives. [Related pubchem assays: 620, 618, 411 ]
T2 sequence (P08659 whole entry): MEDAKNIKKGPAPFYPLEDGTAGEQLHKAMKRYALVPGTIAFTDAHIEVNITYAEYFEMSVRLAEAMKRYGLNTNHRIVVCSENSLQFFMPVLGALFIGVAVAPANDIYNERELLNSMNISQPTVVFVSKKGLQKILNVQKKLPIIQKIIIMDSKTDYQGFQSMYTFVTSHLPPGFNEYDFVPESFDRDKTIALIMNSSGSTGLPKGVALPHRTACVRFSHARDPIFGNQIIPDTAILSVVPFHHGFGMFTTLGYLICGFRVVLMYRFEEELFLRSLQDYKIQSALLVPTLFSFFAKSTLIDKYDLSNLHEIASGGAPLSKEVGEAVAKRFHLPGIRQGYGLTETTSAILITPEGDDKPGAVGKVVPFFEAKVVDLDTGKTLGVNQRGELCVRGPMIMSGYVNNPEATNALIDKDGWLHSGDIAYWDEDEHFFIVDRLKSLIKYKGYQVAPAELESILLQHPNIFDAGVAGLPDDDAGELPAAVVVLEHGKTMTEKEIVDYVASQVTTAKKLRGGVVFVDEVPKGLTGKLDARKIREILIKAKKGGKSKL

cells [7] = assay type: functional, cell-based
[8] = cytotoxicity in HPDE-C7 cells, cell-based, fluorescence, HTS (AID 430); assay type: functional; conditions: Homo sapiens
[9] = biological target: T2, Luciferin 4-monooxygenase; experiment: firefly luciferase enzyme inhibitors, dose response, biochemical, luminescence (AID 1891)
[10] = Luminescence Cell-Based Dose Confirmation HTS to Identify Inhibitors of Platelet Dense Granule Release. [Related pubchem assays: 1663 (Primary HTS), 1678 (Summary of Project)]; assay type: functional
[11] = cytotoxicity in KRAS-transformed pancreatic duct cells, primary screen, cell-based, fluorescence, HTS (AID 431); assay type: functional; conditions: Homo sapiens;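 further: cell line used: HPDE-C7K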
cells [12] = assay type: functional, cell-based; remark: listed apart in the source
HT-1080 = experiment: cytotoxicity in HT1080 fibrosarcoma cells, cell-based, fluorescence readout (AID 620); assay type: functional; conditions: Homo sapiens
[13] = biological target: T3, Sphingosine 1-phosphate receptor 4 (Homo sapiens, UniProt O95977); experiment: Late stage fluorescence dose response cell-based screening assay for antagonists of the Sphingosine 1-Phosphate Receptor 4 (S1P4). [Related pubchem assays: 1524 (Confirmation screen (S1P4 antagonists).), 1510 (Primary screen (S1P4 antagonists).), 1853 (Summary AID (S1P4 antagonists).), 1692 (Dose response screen (S1P4 antagonists).)]; assay type: functional
T3 sequence (O95977 whole entry): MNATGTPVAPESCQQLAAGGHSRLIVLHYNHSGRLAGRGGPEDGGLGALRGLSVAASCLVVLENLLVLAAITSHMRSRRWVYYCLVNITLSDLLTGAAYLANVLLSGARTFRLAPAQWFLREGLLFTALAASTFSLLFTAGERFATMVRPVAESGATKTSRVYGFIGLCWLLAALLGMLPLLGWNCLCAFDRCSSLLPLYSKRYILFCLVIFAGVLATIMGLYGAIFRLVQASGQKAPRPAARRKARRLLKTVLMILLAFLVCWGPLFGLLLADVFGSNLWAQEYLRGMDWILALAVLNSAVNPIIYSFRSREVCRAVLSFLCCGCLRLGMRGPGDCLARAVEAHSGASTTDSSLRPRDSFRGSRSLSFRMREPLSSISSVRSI

[14] = biological target: T3, Sphingosine 1-phosphate receptor 4; experiment: Fluorescence dose response cell-based high throughput screening assay for antagonists of the Sphingosine 1-Phosphate Receptor 4 (S1P4). [Related pubchem assays: 1524 (Confirmation in triplicates.), 1510 (Primary screen.)]; assay type: functional
[15] = biological target: Sphingosine 1-phosphate receptor 1 (Homo sapiens, UniProt P21453); assay type: functional;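 further: Tango beta-arrestin reporter U2OS cells stimulated with S1P near its EC80; inhibitor potency meaning antagonism of receptor activation by the natural agonist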
Sphingosine 1-phosphate receptor 1, sequence (P21453 whole entry): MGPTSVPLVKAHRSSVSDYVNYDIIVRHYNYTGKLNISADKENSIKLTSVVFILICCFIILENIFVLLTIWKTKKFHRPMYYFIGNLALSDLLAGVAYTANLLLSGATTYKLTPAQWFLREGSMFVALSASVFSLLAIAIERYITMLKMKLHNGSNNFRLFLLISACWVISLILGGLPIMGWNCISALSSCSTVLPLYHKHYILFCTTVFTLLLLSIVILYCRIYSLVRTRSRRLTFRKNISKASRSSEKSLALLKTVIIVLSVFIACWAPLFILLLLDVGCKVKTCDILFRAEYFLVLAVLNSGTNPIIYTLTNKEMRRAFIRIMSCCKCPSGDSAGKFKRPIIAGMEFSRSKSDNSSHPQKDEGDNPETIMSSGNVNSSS

[16] = THP-1 cell cytotoxicity, dose response, cytotoxicity control for non-replicating M. tuberculosis project (AID 489025); assay type: functional
[17] = HepG2 cell cytotoxicity, dose response, cytotoxicity control for non-replicating M. tuberculosis project (AID 489018); assay type: functional; conditions: Mycobacterium tuberculosis
cells [18] = assay type: functional
CHO = experiment: cytotoxicity in TLR9-MyD88 CHO cells, dose response, cytotoxicity control for TLR9-MyD88 binding inhibitor project, cell-based, luminescence (AID 588339); assay type: functional, hamster; conditions: Cricetulus griseus;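 further: CHO cells stably coexpressing TLR9 and MyD88 fusions from primary screen; compound exposure lasted 48 hours before viability readout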
[19] = biological target: T4, Replicative DNA helicase DnaB (Mycobacterium tuberculosis, UniProt P9WMR3); experiment: DnaB intein splicing inhibitors, dose response, biochemical, cell-free fluorescence (AID 449749); assay type: functional
T4 sequence (P9WMR3 whole entry): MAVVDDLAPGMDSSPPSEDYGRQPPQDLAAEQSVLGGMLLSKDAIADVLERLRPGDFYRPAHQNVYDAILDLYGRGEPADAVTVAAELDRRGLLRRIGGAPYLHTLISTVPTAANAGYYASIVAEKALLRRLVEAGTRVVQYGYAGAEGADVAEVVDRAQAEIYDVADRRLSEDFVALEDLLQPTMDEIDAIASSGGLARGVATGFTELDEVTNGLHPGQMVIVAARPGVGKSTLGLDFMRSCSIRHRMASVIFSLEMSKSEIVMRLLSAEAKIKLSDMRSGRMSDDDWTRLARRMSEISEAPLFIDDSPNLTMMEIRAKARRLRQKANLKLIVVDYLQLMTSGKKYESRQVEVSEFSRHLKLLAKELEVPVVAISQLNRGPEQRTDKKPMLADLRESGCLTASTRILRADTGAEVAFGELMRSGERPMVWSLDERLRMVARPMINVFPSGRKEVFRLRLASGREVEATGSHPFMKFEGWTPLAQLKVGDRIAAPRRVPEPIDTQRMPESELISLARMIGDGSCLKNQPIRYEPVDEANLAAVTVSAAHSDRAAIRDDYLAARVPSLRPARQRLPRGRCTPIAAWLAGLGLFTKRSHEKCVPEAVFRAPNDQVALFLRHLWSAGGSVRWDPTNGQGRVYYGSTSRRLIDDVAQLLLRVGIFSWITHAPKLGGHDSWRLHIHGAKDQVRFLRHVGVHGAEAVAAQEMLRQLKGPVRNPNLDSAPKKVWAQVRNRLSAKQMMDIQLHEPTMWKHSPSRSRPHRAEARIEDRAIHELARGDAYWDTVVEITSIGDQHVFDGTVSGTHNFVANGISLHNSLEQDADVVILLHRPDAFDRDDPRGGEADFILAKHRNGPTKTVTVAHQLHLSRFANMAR

Protein RecA = biological target: T5, Protein RecA (Mycobacterium tuberculosis, UniProt P9WHJ3); experiment: Fluorescence Cell-Free Homogeneous Dose Retest to Identify Inhibitors of RecA-Intein Splicing Activity. [Related pubchem assays (depositor defined):AID2097, AID2223, AID489010, AID492950]; assay type: functional
T5 sequence (P9WHJ3 whole entry): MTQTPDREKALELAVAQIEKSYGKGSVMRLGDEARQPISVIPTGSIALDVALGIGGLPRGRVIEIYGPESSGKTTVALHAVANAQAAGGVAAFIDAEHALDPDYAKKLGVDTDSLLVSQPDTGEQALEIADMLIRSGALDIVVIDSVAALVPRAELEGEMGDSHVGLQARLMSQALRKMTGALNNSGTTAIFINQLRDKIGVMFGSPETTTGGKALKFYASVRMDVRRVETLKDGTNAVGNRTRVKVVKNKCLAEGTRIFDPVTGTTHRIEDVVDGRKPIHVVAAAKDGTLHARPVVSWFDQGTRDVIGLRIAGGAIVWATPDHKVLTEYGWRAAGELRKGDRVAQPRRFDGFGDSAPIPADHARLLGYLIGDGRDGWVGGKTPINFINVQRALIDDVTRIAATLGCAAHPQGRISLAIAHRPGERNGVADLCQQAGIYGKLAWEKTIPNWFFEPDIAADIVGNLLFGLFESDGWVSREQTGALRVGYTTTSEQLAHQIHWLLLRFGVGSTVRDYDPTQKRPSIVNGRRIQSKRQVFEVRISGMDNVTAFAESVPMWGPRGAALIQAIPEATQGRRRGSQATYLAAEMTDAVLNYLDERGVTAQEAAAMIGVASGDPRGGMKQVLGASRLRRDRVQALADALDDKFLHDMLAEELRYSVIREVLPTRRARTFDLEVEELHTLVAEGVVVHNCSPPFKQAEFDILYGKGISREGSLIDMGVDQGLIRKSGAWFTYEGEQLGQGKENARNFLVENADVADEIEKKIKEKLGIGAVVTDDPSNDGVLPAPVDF

Beta Lactamase = Beta Lactamase (Pseudomonas aeruginosa, UniProt Q932Y6); experiment: beta-lactamase reporter inhibitor potency, dose response, artefact control for TLR9-MyD88 binding inhibitor project, BLA reporter cells, FRET fluorescence (AID 588341); assay type: cell-based;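 further: cell based assay in CHO-K1 cells stably expressing beta-lactamase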
Beta Lactamase, sequence (Q932Y6 whole entry): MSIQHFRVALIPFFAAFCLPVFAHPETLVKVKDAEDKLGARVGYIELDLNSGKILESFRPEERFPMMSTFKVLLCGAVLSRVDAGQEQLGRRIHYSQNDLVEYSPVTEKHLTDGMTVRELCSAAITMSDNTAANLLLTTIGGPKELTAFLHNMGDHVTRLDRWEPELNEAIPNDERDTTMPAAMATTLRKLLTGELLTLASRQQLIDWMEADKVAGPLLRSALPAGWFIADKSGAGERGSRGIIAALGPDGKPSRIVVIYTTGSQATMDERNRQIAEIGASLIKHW

[20] = biological target: T6, Beta-2 adrenergic receptor (Homo sapiens, UniProt P07550); experiment: beta2AR agonists driving receptor internalization, dose response, cell-based, FAP fluorogen, flow cytometry, cherry pick 1 (AID 588763); assay type: functional
T6 sequence (P07550 whole entry): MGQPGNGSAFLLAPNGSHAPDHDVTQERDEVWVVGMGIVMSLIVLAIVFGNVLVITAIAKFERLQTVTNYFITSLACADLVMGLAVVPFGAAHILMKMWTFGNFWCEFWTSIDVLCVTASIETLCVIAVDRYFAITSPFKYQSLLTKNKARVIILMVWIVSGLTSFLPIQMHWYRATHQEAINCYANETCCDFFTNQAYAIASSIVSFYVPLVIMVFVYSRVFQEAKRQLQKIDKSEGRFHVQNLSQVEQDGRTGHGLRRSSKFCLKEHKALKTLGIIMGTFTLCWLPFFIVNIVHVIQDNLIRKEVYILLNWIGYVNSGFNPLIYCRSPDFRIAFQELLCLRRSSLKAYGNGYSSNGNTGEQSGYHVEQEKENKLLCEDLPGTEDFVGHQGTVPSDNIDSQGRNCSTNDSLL

[21] = biological target: T6, Beta-2 adrenergic receptor; experiment: Dose response for HTS for Beta-2AR agonists via FAP method from Powderset2.; assay type: functional
INS1 [22] = experiment: protection of INS-1E cells from cytokine death, dose response, ATP luminescence, dry powder (AID 488844); assay type: functional, cell-based; conditions: Rattus norvegicus
INS1 [23] = experiment: protection from cytokine-driven beta-cell apoptosis, dose response, JC-1 fluorescence, INS-1E, dry powder, set 2 (AID 488867); assay type: functional, cell-based; conditions: Rattus norvegicus
INS1 [24] = experiment: protection from cytokine-induced mitochondrial depolarization, dose response, cell-based, INS-1E, JC-1 fluorescence ratio, dry powder (AID 488931); assay type: functional; conditions: Rattus norvegicus

O=C(C1CCC1)N1CCN(c2ccnc3cc(Cl)ccc23)CC1
IC50 [1]: 22.1 µM (not active)
IC50 (Insulin-degrading enzyme): 31.6 µM (not active)
AC50 (Candida albicans [2]): 5 µM (active)
AC50 (Candida albicans [3]): 1.5 µM (active)
AC50 (Candida albicans [4]): 16.9 µM (active)
AC50 (Candida albicans [5]): 0.58 µM (active)

CCOC(=O)CCS(=O)(=O)c1nc(-c2ccccc2)cc(C(F)(F)F)n1
EC50 [6]: < 0.2 µM (active)
EC50 (cells [7]): > 350 µM (not active)
EC50 [8]: 4.94 µM (active)
EC50 [9]: > 112 µM (not active)
EC50 [10]: 14.1 µM (active)
EC50 [11]: 4.4 µM (active)
EC50 (cells [12]): 43.4 µM (active)
EC50 (HT-1080): 14 µM (active)
IC50 [13]: 3.58 µM (not active)
IC50 [14]: 0.843 µM (active)
IC50 [15]: 15.5 µM (not active)
CC50 [16]: 19.9 µM (active)
CC50 [17]: 16.2 µM (active)
IC50 (cells [18]): 2.7 µM (active)
IC50 (CHO): 3.49 µM (active)
AC50 [19]: 4.45 µM (active)
EC50 (Protein RecA): 3.23 µM (active)
IC50 (Beta Lactamase): 28.2 µM (inactive)

CCOC(=O)c1ccc(NC(=O)Cn2nnc(-c3ccccc3)n2)cc1
EC50 [20]: 1.18 µM (active)
EC50 [21]: 1.31 µM (active)

C[C@@H]1CN([C@H](C)CO)C(=O)c2cccc(NC(=O)Nc3ccc(F)cc3)c2O[C@H]1CN(C)S(=O)(=O)c1ccc(Cl)cc1
AC50 (INS1 [22]): 48 µM (active)
AC50 (INS1 [23]): 227 µM (active)
AC50 (INS1 [24]): 62.1 µM (active)
